This is an account of results in publication PMC6214108, “Synthesis and In Vitro Antitumor Activity of Novel Bivalent β-Carboline-3-carboxylic Acid Derivatives with DNA as a Potential Target” (International Journal of Molecular Sciences, 2018).

For one test, the system named is bcl-2 protein. Description: Western blot of bcl-2 protein. It is filed as cell-based. The settings on record: A549, 2, 4, and 8 μM, 48 h. Here is the method:
The level of cytochrome C (Cyt C) in mitochondria, and the expression of bcl-2 protein, were evaluated by western blot. A549 cells (1 × 10^6 cells per well) seeded into 6-well plates (JET, Guangzhou, China) were incubated with DMEM containing various concentrations (2, 4, and 8 μM) of β-carbolines (6i and 6u) for 48 h at 37 °C and 5% CO2. Then, the cells were lysed with RIPA lysis buffer for 30 min on ice (containing 1% PMSF), centrifuged at 12,000× g for 5 min at 4 °C, and then the supernatants were transferred to 1.5 mL EP tubes. Proteins were separated by sodium dodecyl sulfate-polyacrylamide gel electrophoresis (SDS-PAGE) and blotted on polyvinylidene difluoride (PVDF) membranes (Millipore, Burlington, MA, USA), as previously described. The membranes were blocked for 2 h at r.t. with 5% non-fat milk in TBST buffer (20 mM Tris-HCl,150 mM NaCl and 0.05% Tween-20, pH7.4), and then incubated with the mouse anti-bcl-2 monoclonal antibody (Sigma, Saint Louis, MO, USA), anti-cytochrome C monoclonal antibody (Beyotime, Haimen, China), and anti-β-actin antibody (1:4000 dilution; Abcam, Cambridge, MA, USA) overnight at 4 °C, and finally incubated with the peroxidase conjugated goat anti-mouse IgG (Jackson ImmunoResearch Laboratories, West Grove, PA, USA) at 37 °C for 1 h. […]
(A western blot detects proteins with antibodies after separation by electrophoresis.)

The test system of the next test is calf thymus DNA (CT DNA). Description: UV-visible spectral study with CT DNA. The test is classed as binding. The settings on record: 10 μM compound, 200 nM CT DNA additions. Here is the method:
UV-visible spectroscopy was carried out to determine the binding mode of β-carboline derivatives to DNA (CT DNA) using UV-2500 spectrophotometer (Shimadzu, Kyoto, Japan) at 25 °C. Stock solutions of 10 mM β-carboline derivatives were dissolved in DMSO, and 10 μM CT DNA was prepared in 100 mM KBPES buffer (30 mM Potassium Phosphate with 100 mM KCl, pH 7.0). UV-visible absorption titrations were performed by adding 200 nM CT DNA solution to the quartz cuvette containing approximately 10 μM derivative solutions. UV-Visible absorption spectra were recorded from 200 nm to 350 nm.
Figure 5 UV-visible spectroscopy study of β-carbolines with calf thymus (CT) DNA. UV-visible absorption titrations were done by adding 200 nM CT DNA solution each time to the quartz cuvette containing 10 μM 4B, 6i, 4D, and 6u. The absorption spectra were recorded from 200 nm to 350 nm.

For `O=C(OCCCCCOC(=O)c1cc2c3ccccc3n(Cc3ccccc3F)c2cn1)c1cc2c3ccccc3n(Cc3ccccc3F)c2cn1` [Compound 6u], in the test on bcl-2 protein, the “Expression of bcl-2 protein, western blot” value is “decreased in a dose-dependent manner”.

Regarding `Cc1ccccc1Cn1c2ccccc2c2cc(C(=O)OCCCCCOC(=O)c3cc4c5ccccc5n(Cc5ccccc5C)c4cn3)ncc21` [Compound 6i], the “Expression of bcl-2 protein, western blot” value in the test with bcl-2 protein was “decreased in a dose-dependent manner”.

With `COC(=O)c1cc2c3ccccc3n(Cc3ccccc3F)c2cn1` [Compound 4D], the “Intercalation ability (UV-visible spectra with CT DNA)” value in the test on calf thymus DNA (CT DNA) was “very weak”.
